Patent publication US6933321B2, “Antiandrogenic biphenyls” (Endorecherche, Inc., priority 2002, dated 2005)
Where two headings read alike, the source gives them in different places.

System: Shionogi mouse mammary carcinoma cells
Test: Antiandrogenic activity on DHT-stimulated Shionogi mouse mammary carcinoma cell number
Assay type: cell-based
Settings: for IC50: Mus musculus; for A = Ki OH-Flu/Ki compound: ratio of Ki of hydroxyflutamide versus tested compound, higher values preferable
[1] = inhibition of DHT-stimulated Shionogi cell number, 10-12 days, read-out: Antiandrogenic activity IC50
[2] = inhibition of DHT-stimulated Shionogi cell number
[3] = read-out: Antiandrogenic activity IC50 (nM)

SMILES | IC50 [1] | A = Ki OH-Flu/Ki compound [2] | IC50 [3]
N#Cc1ccc(-c2ccc(Br)cc2C(F)(F)F)cc1[N+](=O)[O-] [EM-4792] | > 500 nM | <0.2 | 
CCOc1ccc(-c2ccc(C#N)c(C(F)(F)F)c2)c(C(N)=O)c1 [EM-4925] | > 500 nM | <0.2 | 
N#Cc1ccc(-c2ccc(F)cc2C(F)(F)F)cc1C(F)(F)F [EM-4296] | > 500 nM | <0.2 | 
N#Cc1ccc(-c2ccc(Br)c([N+](=O)[O-])c2)cc1 [EM-4338] | > 500 nM | <0.2 | 
N#Cc1ccc(-c2ccc([N+](=O)[O-])c(C(F)(F)F)c2)cc1 [EM-4180] |  | <0.2 | > 500 nM
N#Cc1cc(-c2ccc(C#N)c(C(F)(F)F)c2)ccc1F [EM-4056] | > 500 nM | <0.2 | 
N#Cc1ccc(-c2ccc(F)cc2C(=O)Nc2ccccc2)cc1C(F)(F)F [EM-4864] |  | <0.2 | > 500 nM
N#Cc1ccc(-c2ccc(F)cc2)cc1C(F)(F)F [EM-3705] | 129 nM | 0.7 | 
CCCNC(=O)c1cc(F)ccc1-c1ccc(C#N)c(C(F)(F)F)c1 [EM-4855] | > 500 nM | <0.2 | 
Cc1ccc(-c2ccc(C#N)c(C(F)(F)F)c2)c(C(F)(F)F)c1 [EM-4185] | 193 nM | 0.7 | 
N#Cc1ccc(-c2ccc(F)cc2F)cc1C(F)(F)F [EM-3975] | 131 nM | 0.77 | 
CCN(CC)C(=O)c1ccc(-c2ccc(C#N)c(C(F)(F)F)c2)cc1 [EM-3987] | > 500 nM | <0.2 | 
CC(O)(c1ccc(-c2ccc(C#N)c(C(F)(F)F)c2)cc1)C(F)(F)F (centres unmarked) [EM-4026] | > 500 nM | <0.2 | 
N#Cc1ccc(-c2ccc(F)cc2C(N)=O)cc1Cl [EM-4849] | > 500 nM | <0.2 | 
CS(=O)(=O)c1cc(-c2ccc(F)cc2F)ccc1C#N [EM-4292] | > 500 nM | <0.2 | 
N#Cc1ccc(-c2ccc(N)cc2C(F)(F)F)cc1C(F)(F)F [EM-4154] | 145 nM | 0.7 | 
N#Cc1ccc(-c2cc([N+](=O)[O-])c(F)cc2F)cc1C(F)(F)F [EM-4867] | > 500 nM | <0.2 | 
N#Cc1ccc(-c2cccc(F)c2)cc1C(F)(F)F [EM-3977] | > 500 nM | <0.2 | 
N#Cc1cc(F)c(-c2ccc(F)cc2F)cc1Cl [EM-5111] | > 500 nM | <0.2 | 
Cc1cc(C#N)ccc1-c1ccc(C#N)c(C(F)(F)F)c1 [EM-4079] |  | 0.8 | 78 nM
N#Cc1ccc(-c2ccc(F)c(C(F)(F)F)c2)cc1C(F)(F)F [EM-4093] | > 500 nM | <0.2 | 
N#Cc1ccc(-c2ccc(C(O)C(F)(F)F)cc2)cc1C(F)(F)F (centres unmarked) [EM-3998] | > 500 nM | <0.2 | 
CSc1ccc(-c2ccc(C#N)c(C(F)(F)F)c2)cc1 [EM-3732] | > 500 nM | <0.2 | 
N#Cc1ccc(-c2ccc([N+](=O)[O-])cc2)cc1C(F)(F)F [EM-4149] | > 500 nM | <0.2 | 
N#Cc1ccc(-c2ccc(C#N)c(C(F)(F)F)c2)c(C(N)=O)c1 [EM-4320] | > 500 nM | <0.2 | 

SMILES | IC50 [1] | A = Ki OH-Flu/Ki compound [2] | IC50 [3]
COc1ccc(-c2ccc(F)cc2F)cc1Br [EM-4871] | > 500 nM | <0.2 | 
CS(=O)(=O)c1cc(C#N)ccc1-c1ccc(C#N)c(C(F)(F)F)c1 [EM-4255] | > 500 nM | <0.2 | 
N#Cc1ccc(-c2ccc(F)cc2C(=O)Nc2ccncc2)cc1C(F)(F)F [EM-5019] | > 500 nM | <0.2 | 
COc1ccc(-c2ccc(C#N)cc2)cc1C(F)(F)F [EM-4246] | > 500 nM | <0.2 | 
N#Cc1ccc(-c2ccc(Br)c(C(F)(F)F)c2)cc1 [EM-4177] | > 500 nM | <0.2 | 
N#Cc1ccc(-c2ccc(C#N)c(C(F)(F)F)c2)cc1Cl [EM-4108] | 112 nM | 0.6 | 
N#Cc1ccc(-c2cc(F)cc(F)c2)cc1C(F)(F)F [EM-3974] | > 500 nM | <0.2 | 
CN(C)C(=O)Nc1ccc(-c2ccc(C#N)c(C(F)(F)F)c2)cc1 [EM-4206] | > 500 nM | <0.2 | 
COc1ccc(-c2ccc(C#N)cc2)cc1 [EM-3704] | > 500 nM | <0.2 | 
N#Cc1ccc(-c2ccc(F)c([N+](=O)[O-])c2)cc1C(F)(F)F [EM-4230] | > 500 nM | <0.2 | 
N#Cc1ccc(-c2ccc(C#N)c(C(F)(F)F)c2)c(F)c1 [EM-4189] | 132 nM | 1.1 | 
N#Cc1ccccc1-c1ccc(C#N)c(C(F)(F)F)c1 [EM-4071] |  | 2.5 | 33 nM
N#Cc1ccc(-c2ccc(C#N)c([N+](=O)[O-])c2)cc1 [EM-4344] | > 500 nM | <0.2 | 
C[S+]([O-])c1ccc(-c2ccc(C#N)c(C(F)(F)F)c2)cc1 (centres unmarked) [EM-3812] | > 500 nM | <0.2 | 
N#Cc1ccc(-c2ccc(F)cc2C(N)=O)cc1C(F)(F)F [EM-4171, 4′-Cyano-4-fluoro-3′-trifluoromethyl-biphenyl-2-carboxylic acid amide] | 943 nM | 0.2 | 
COc1ccc(-c2ccc([N+](=O)[O-])c(C(F)(F)F)c2)cc1 [EM-3393] | 129 nM | 0.4 | 
COc1ccc(-c2c(F)cc(F)cc2F)cc1C(F)(F)F [EM-4833] | > 500 nM | <0.2 | 
N#Cc1ccc(-c2ccc(C#N)cc2)cc1 [EM-3993] | > 500 nM | <0.2 | 
N#Cc1ccc(-c2ccc(Br)cc2C(N)=O)cc1C(F)(F)F [EM-4979] | > 500 nM | <0.2 | 
CCNC(=O)c1cc(F)ccc1-c1ccc(C#N)c(C(F)(F)F)c1 [EM-4866] | > 500 nM | <0.2 | 
CN(C)c1ccc(-c2ccc(C#N)c(C(F)(F)F)c2)cc1 [EM-3814] | 150 nM | 0.9 | 
N#Cc1ccc(-c2ccc(C#N)c(C(F)(F)F)c2)c([N+](=O)[O-])c1 [EM-4253] | > 500 nM | <0.2 | 
N#Cc1ccc(-c2ccc(F)cc2C(=O)N2CCOCC2)cc1C(F)(F)F [EM-5021] | > 500 nM | <0.2 | 
CSc1cc(-c2ccc(C#N)cc2)ccc1C#N [EM-4285] | > 500 nM | <0.2 | 
N#Cc1ccc(-c2ccccc2C(F)(F)F)cc1C(F)(F)F [EM-4034] | > 500 nM | <0.2 | 

SMILES | IC50 [1] | A = Ki OH-Flu/Ki compound [2] | IC50 [3]
N#Cc1ccc(-c2ccc(C#N)c(C(F)(F)F)c2)cc1F [EM-4065] |  | <0.2 | > 500 nM
N#Cc1ccc(-c2ccc(F)cc2C(=O)Nc2ccc(F)cc2F)cc1C(F)(F)F [EM-5038] | > 500 nM | <0.2 | 
N#Cc1ccc(-c2c(NC(=O)c3ccc(Cl)cc3)cc(F)cc2C(N)=O)cc1C(F)(F)F [EM-5094] | > 500 nM | <0.2 | 
CC(=O)Nc1ccc(-c2ccc(C#N)c(C(F)(F)F)c2)cc1 [EM-4243] | > 500 nM | <0.2 | 
CN(C)CCN(C)C(=O)c1cc(F)ccc1-c1ccc(C#N)c(C(F)(F)F)c1 [EM-4980] | > 500 nM | <0.2 | 
N#Cc1ccc(-c2ccc(C#N)c(Cl)c2)cc1 [EM-4281] | 145 nM | 0.6 | 
N#Cc1ccc(-c2ccc(F)cc2F)cc1[N+](=O)[O-] [EM-4633] | 96 nM | 0.8 | 
N#Cc1ccc(-c2cc(F)c(F)c(F)c2)cc1C(F)(F)F [EM-4116] | > 500 nM | <0.2 | 
CSc1cc(C#N)ccc1-c1ccc(C#N)c(C(F)(F)F)c1 [EM-4227] | 121 nM | 1.2 | 
Cc1cc(-c2ccc(C#N)c(C(F)(F)F)c2)ccc1C#N [EM-4069] | 110 nM | 0.7 | 
Cc1cc(C#N)c(Cl)cc1-c1ccc(F)cc1F [EM-5112] |  | 1.1 | 97 nM
N#Cc1ccc(-c2c(F)cc(F)cc2F)cc1C(F)(F)F [EM-4203] | 280 nM | 0.6 | 
Cc1cc(F)cc([N+](=O)[O-])c1-c1ccc(C#N)c(C(F)(F)F)c1 [EM-4947] | > 500 nM | <0.2 | 
N#Cc1ccc(-c2ccc(C#N)c(C(F)(F)F)c2)cc1C(F)(F)F [EM-4012] | > 500 nM | <0.2 | 
CS(=O)(=O)Nc1ccc(-c2ccc(C#N)c(C(F)(F)F)c2)cc1 [EM-4244] | > 500 nM | <0.2 | 
N#Cc1ccc(-c2ccc(F)c(F)c2)cc1C(F)(F)F [EM-4047] |  | <1 | > 100 nM
N#Cc1ccc(-c2ccc(F)c(Cl)c2)cc1C(F)(F)F [EM-4216] | > 500 nM | <0.2 | 
C[C@@](O)(c1cccc(-c2ccc(C#N)c(C(F)(F)F)c2)c1)C(F)(F)F [EM-4264] |  | 1.6 | 54 nM
N#Cc1ccc(-c2cc(NC(=O)c3ccc(Cl)cc3)c(F)cc2C(N)=O)cc1C(F)(F)F [EM-5003] | > 500 nM | <0.2 | 
N#Cc1ccc(-c2ccc(F)cc2F)cc1F [EM-4282] | > 500 nM | <0.2 | 
CCCCNC(=O)c1cc(F)ccc1-c1ccc(C#N)c(C(F)(F)F)c1 [EM-4856] | > 500 nM | <0.2 | 
CC(O)(c1ccc(-c2ccc(C#N)cc2)cc1)C(F)(F)F (centres unmarked) [EM-3979] | > 500 nM | <0.2 | 
CNC(=O)c1cc(F)ccc1-c1ccc(C#N)c(C(F)(F)F)c1 [EM-4961] | > 500 nM | <0.2 | 
